From patent US10188634B2, “3-(3H-imidazo[4,5-C]pyridin-2-yl)-1 H-pyrazolo[4,3-B]pyridines and therapeutic uses thereof” (Samumed, LLC, priority 2015, dated 2019)

Tests used:
Format in all cases: cell-based
[1] = tested on: LL29 cells (primary human fibroblasts derived from IPF patients) treated with TGF-β1, α-smooth muscle actin; assay: Inhibition of the fibrotic process: αSMA staining in TGF-β1 treated primary human fibroblasts from IPF patients (LL29 cells); details: Fibroblast, 96 h; for EC50: LL29 cells treated with TGF-β1 (20 ng/mL), 4 days; for inhibition at 10 µM: LL29 cells treated with TGF-β1, 4 days, read-out: percent inhibition in brackets (given for EC50 >10 μM)
SW480 colon cancer cells = assay: Cell viability assay (CellTiter-Blue) in SW480 colon cancer cells; details: Homo sapiens, 96 h; for inhibition at 10 µM: four days, CellTiter-Blue, read-out: percent inhibition at 10 μM (given for EC50 of >10 μM); for EC50: four days incubation, CellTiter-Blue cell viability
Outline: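 Four-day exposure of SW480 cells (~2×10^3/well) to compound from 10 μM down to 0.004 μM in 1:3 steps, in duplicate. Resorufin fluorescence from CellTiter-Blue after ~3 h served as the viability read-out. EC50 values came from nonlinear curve fits, with % inhibition at 10 μM given where EC50 >10 μM.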

IL-6 in THP-1 cells = assay: Inhibition of IL-6 in LPS-stimulated THP-1 human monocyte cells (HTRF); details: IL-6 HTRF; for EC50: 500 ng/mL LPS, 22 hours; for inhibition at 10 µM: LPS, read-out: percent inhibition in brackets (given for EC50 >10 μM)
Outline: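 IL-6 was quantified by HTRF ratio after LPS (500 ng/mL, 22 h) stimulation of THP-1 monocytes pretreated 2 h with compound, 10-point 1:3 dilutions from 10 μM, 0.1% DMSO. Cells were held in 1% FBS for 24 h beforehand. Values normalised to DMSO; four-parameter EC50, or % inhibition at 10 μM above that.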

## CCC(=O)Nc1cncc(-c2ccc3[nH]nc(-c4nc5c(-c6cccs6)cncc5[nH]4)c3n2)c1 [Compound 309, N-(5-(3-(7-(Thiophen-2-yl)-3H-imidazo[4,5-c]pyridin-2-yl)-1H-pyrazolo[4,3-b]pyridin-5-yl)pyridin-3-yl)propionamide]
[1]
  EC50: > 10 µM
  inhibition at 10 µM: 0%
SW480 colon cancer cells
  inhibition at 10 µM: 0%
  EC50: > 10 µM
IL-6 in THP-1 cells
  EC50: > 10 µM
  inhibition at 10 µM: 31.2%

## CN(C)Cc1cncc(-c2ccc3[nH]nc(-c4nc5c(-c6cccs6)cncc5[nH]4)c3n2)c1 [Compound 321, N,N-dimethyl-1-(5-(3-(7-(thiophen-2-yl)-3H-imidazo[4,5-c]pyridin-2-yl)-1H-pyrazolo[4,3-b]pyridin-5-yl)pyridin-3-yl)methanamine]
[1]
  EC50: 7.46 µM
SW480 colon cancer cells
  EC50: 4.74 µM
IL-6 in THP-1 cells
  EC50: > 10 µM
  inhibition at 10 µM: 22.2%

## c1csc(-c2cncc3[nH]c(-c4n[nH]c5ccc(-c6ccncc6)nc45)nc23)c1 [Compound 326, 5-(Pyridin-4-yl)-3-(7-(thiophen-2-yl)-3H-imidazo[4,5-c]pyridin-2-yl)-1H-pyrazolo[4,3-b]pyridine]
[1]
  EC50: > 10 µM
  inhibition at 10 µM: 26.6%
SW480 colon cancer cells
  inhibition at 10 µM: 0%
  EC50: > 10 µM
IL-6 in THP-1 cells
  EC50: > 10 µM
  inhibition at 10 µM: 22.3%

## O=C(Nc1cncc(-c2ccc3[nH]nc(-c4nc5c(-c6cccs6)cncc5[nH]4)c3n2)c1)C1CC1 [Compound 328, N-(5-(3-(7-(Thiophen-2-yl)-3H-imidazo[4,5-c]pyridin-2-yl)-1H-pyrazolo[4,3-b]pyridin-5-yl)pyridin-3-yl)cyclopropanecarboxamide]
[1]
  EC50: > 10 µM
  inhibition at 10 µM: 0%
SW480 colon cancer cells
  inhibition at 10 µM: 10%
  EC50: > 10 µM
IL-6 in THP-1 cells
  EC50: > 10 µM
  inhibition at 10 µM: 40.6%

## Cc1ccc(-c2cncc3[nH]c(-c4n[nH]c5ccc(-c6cncc(NC(=O)C(C)C)c6)nc45)nc23)s1 [Compound 373, N-(5-(3-(7-(5-Methylthiophen-2-yl)-3H-imidazo[4,5-c]pyridin-2-yl)-1H-pyrazolo[4,3-b]pyridin-5-yl)pyridin-3-yl)isobutyramide]
[1]
  EC50: 2.63 µM
SW480 colon cancer cells
  inhibition at 10 µM: 2.6%
  EC50: > 10 µM
IL-6 in THP-1 cells
  EC50: > 10 µM
  inhibition at 10 µM: 41.3%

## Cc1ccc(-c2cncc3[nH]c(-c4n[nH]c5ccc(-c6cncc(NC(=O)C7CCCC7)c6)nc45)nc23)s1 [Compound 386, N-(5-(3-(7-(5-Methylthiophen-2-yl)-3H-imidazo[4,5-c]pyridin-2-yl)-1H-pyrazolo[4,3-b]pyridin-5-yl)pyridin-3-yl)cyclopentanecarboxamide]
[1]
  EC50: > 10 µM
  inhibition at 10 µM: 0%
SW480 colon cancer cells
  inhibition at 10 µM: 0.9%
  EC50: > 10 µM
IL-6 in THP-1 cells
  EC50: 0.351 µM

## CCNCc1cncc(-c2ccc3[nH]nc(-c4nc5c(-c6cc(F)cc(NCCN(C)C)c6)cncc5[nH]4)c3n2)c1 [Compound 426, N^1-(3-(2-(5-(5-((Ethylamino)methyl)pyridin-3-yl)-1H-pyrazolo[4,3-b]pyridin-3-yl)-3H-imidazo[4,5-c]pyridin-7-yl)-5-fluorophenyl)-N^2,N^2-dimethylethane-1,2-diamine]
[1]
  EC50: 5.09 µM
SW480 colon cancer cells
  inhibition at 10 µM: 4.4%
  EC50: > 10 µM
IL-6 in THP-1 cells
  EC50: 8.05 µM

## CCCCC(=O)Nc1cncc(-c2ccc3[nH]nc(-c4nc5c(-c6cc(F)cc(NCCN(C)C)c6)cncc5[nH]4)c3n2)c1 [Compound 439, N-(5-(3-(7-(3-((2-(Dimethylamino)ethyl)amino)-5-fluorophenyl)-3H-imidazo[4,5-c]pyridin-2-yl)-1H-pyrazolo[4,3-b]pyridin-5-yl)pyridin-3-yl)pentanamide]
[1]
  EC50: 0.248 µM
SW480 colon cancer cells
  inhibition at 10 µM: 1.3%
  EC50: > 10 µM
IL-6 in THP-1 cells
  EC50: > 10 µM
  inhibition at 10 µM: 31.5%

## CS(=O)(=O)NCc1cc(F)cc(-c2cncc3[nH]c(-c4n[nH]c5ccc(-c6cncc(NC(=O)c7ccccc7)c6)nc45)nc23)c1 [Compound 459, N-(5-(3-(7-(3-Fluoro-5-(methylsulfonamidomethyl)phenyl)-3H-imidazo[4,5-c]pyridin-2-yl)-1H-pyrazolo[4,3-b]pyridin-5-yl)pyridin-3-yl)benzamide]
[1]
  EC50: > 10 µM
  inhibition at 10 µM: 0%
SW480 colon cancer cells
  inhibition at 10 µM: 1.8%
  EC50: > 10 µM
IL-6 in THP-1 cells
  EC50: > 10 µM
  inhibition at 10 µM: 0%

## CCCC(=O)Nc1cncc(-c2ccc3[nH]nc(-c4nc5c(-c6cc(F)cc(CNS(C)(=O)=O)c6)cncc5[nH]4)c3n2)c1 [Compound 465, N-(5-(3-(7-(3-Fluoro-5-(methylsulfonamidomethyl)phenyl)-3H-imidazo[4,5-c]pyridin-2-yl)-1H-pyrazolo[4,3-b]pyridin-5-yl)pyridin-3-yl)butyramide]
[1]
  EC50: 2.35 µM
SW480 colon cancer cells
  inhibition at 10 µM: 1.8%
  EC50: > 10 µM
IL-6 in THP-1 cells
  EC50: > 10 µM
  inhibition at 10 µM: 28.6%

## CS(=O)(=O)NCc1cc(F)cc(-c2cncc3[nH]c(-c4n[nH]c5ccc(-c6cncc(CNCc7ccccc7)c6)nc45)nc23)c1 [Compound 472, N-(3-(2-(5-(5-((Benzylamino)methyl)pyridin-3-yl)-1H-pyrazolo[4,3-b]pyridin-3-yl)-3H-imidazo[4,5-c]pyridin-7-yl)-5-fluorobenzyl)methanesulfonamide]
[1]
  EC50: 7.27 µM
SW480 colon cancer cells
  inhibition at 10 µM: 0%
  EC50: > 10 µM
IL-6 in THP-1 cells
  EC50: > 10 µM
  inhibition at 10 µM: 39.3%

## CS(=O)(=O)NCc1cc(F)cc(-c2cncc3[nH]c(-c4n[nH]c5ccc(-c6cncnc6)nc45)nc23)c1 [Compound 475, N-(3-Fluoro-5-(2-(5-(pyrimidin-5-yl)-1H-pyrazolo[4,3-b]pyridin-3-yl)-3H-imidazo[4,5-c]pyridin-7-yl)benzyl)methanesulfonamide]
[1]
  EC50: 2.44 µM
SW480 colon cancer cells
  inhibition at 10 µM: 0.9%
  EC50: > 10 µM
IL-6 in THP-1 cells
  EC50: > 10 µM
  inhibition at 10 µM: 0%

## Fc1cccc(-c2cncc3[nH]c(-c4n[nH]c5ccc(C6CCNCC6)nc45)nc23)c1 [Compound 477, 3-(7-(3-Fluorophenyl)-3H-imidazo[4,5-c]pyridin-2-yl)-5-(piperidin-4-yl)-1H-pyrazolo[4,3-b]pyridine]
[1]
  EC50: 4.56 µM
SW480 colon cancer cells
  inhibition at 10 µM: 1.8%
  EC50: > 10 µM
IL-6 in THP-1 cells
  EC50: > 10 µM
  inhibition at 10 µM: 13%

## Fc1cccc(-c2cncc3[nH]c(-c4n[nH]c5ccc(C6=CCNCC6)nc45)nc23)c1 [Compound 478, 3-(7-(3-Fluorophenyl)-3H-imidazo[4,5-c]pyridin-2-yl)-5-(1,2,3,6-tetrahydropyridin-4-yl)-1H-pyrazolo[4,3-b]pyridine]
[1]
  EC50: 4.99 µM
SW480 colon cancer cells
  inhibition at 10 µM: 0%
  EC50: > 10 µM
IL-6 in THP-1 cells
  EC50: > 10 µM
  inhibition at 10 µM: 18.6%

## Fc1cccc(-c2cncc3[nH]c(-c4n[nH]c5ccc(-c6cn[nH]c6)nc45)nc23)c1 [Compound 479, 3-(7-(3-Fluorophenyl)-3H-imidazo[4,5-c]pyridin-2-yl)-5-(1H-pyrazol-4-yl)-1H-pyrazolo[4,3-b]pyridine]
[1]
  EC50: > 10 µM
  inhibition at 10 µM: 36.2%
SW480 colon cancer cells
  inhibition at 10 µM: 5.5%
  EC50: > 10 µM
IL-6 in THP-1 cells
  EC50: > 10 µM
  inhibition at 10 µM: 15.7%

## Cn1cc(-c2ccc3[nH]nc(-c4nc5c(-c6cccc(F)c6)cncc5[nH]4)c3n2)cn1 [Compound 480, 3-(7-(3-Fluorophenyl)-3H-imidazo[4,5-c]pyridin-2-yl)-5-(1-methyl-1H-pyrazol-4-yl)-1H-pyrazolo[4,3-b]pyridine]
[1]
  EC50: > 10 µM
  inhibition at 10 µM: 4.2%
SW480 colon cancer cells
  inhibition at 10 µM: 1.7%
  EC50: > 10 µM
IL-6 in THP-1 cells
  EC50: > 10 µM
  inhibition at 10 µM: 9.7%
